Data on three compounds can be found in patent publication US4710580A, “2-[1,3,2-dioxaphospholan-2-yloxy]ethyl compounds” (American Home Products Corporation, priority 1986, dated 1987).

For one assay, the target named is T1, human platelet PLA2 (Homo sapiens, UniProt P14555).
T1 construct: The PLA2 enriched supernatant fluid is removed and the amount of protein is determined by the Lowry method; from tissue; host or cells: human platelets (expired, blood bank), acid extract, 10,000 g supernatant
T1 sequence (P14555 21-144): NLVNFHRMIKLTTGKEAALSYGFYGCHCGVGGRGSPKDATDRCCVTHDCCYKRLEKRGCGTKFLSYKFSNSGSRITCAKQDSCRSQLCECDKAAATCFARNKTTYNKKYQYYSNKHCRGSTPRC
As to the kind of experiment: in vitro inhibition of human platelet PLA2 (hydrolysis of [1-14C] oleic acid-labelled E. coli membrane phospholipids). The note with it: pH 7.4, 30 minutes incubation. Type of assay: biochemical. How it is done:
The ability of the compounds to inhibit the activity of PLA2 enzyme is measured in the following in vitro assay.
The assay is carried out as follows:
E. coli, cultured to exponential growth, are sedimented for 15 minutes at 10,000 g and resuspended in sterile isotonic saline (1-3 ml). 10-25 μCi [1-^14 C] oleic acid (or arachidonic acid) is added to a sterile flask, evaporated by N2 and resolubilized with 0.3 ml 20% fatty acid-free BSA. 75-100 ml of nutrient broth and 1 ml E. coli are then added to each flask and incubated for 2-3 hours at 37° C. [1-^14 C] oleic acid labelled E. coli are then sedimented, suspended in saline and added to fresh nutrient broth and incubated for 1.5 hours at 37° C. to complete [1-^14 C] oleic acid incorporation into the phospholipids. After overnight refrigeration of cultures, E. coli are again sedimented, suspended in saline and autoclaved for 15 minutes at 120° C. E. coli cultures are washed twice with saline (first wash contains 1% BSA) and resuspended in saline. […] Cell number is determined by measuring the optical density at 550 nm ([…]=1 O.D.). The amount of radioactivity associated with cells is determined by counting a defined volume of cell suspension. […]
Expired human platelets from the blood bank are centrifuged for 15 minutes at 200 g to obtain a platelet rich plasma fraction and to remove the red blood cells. […] The PLA2 enriched supernatant fluid is removed and the amount of protein is determined by the Lowry method. […]
The assay measures the hydrolysis of E. coli membrane phospholipids and the release of free [1-^14 C] oleic acid from the C-2 position of phospholipids by human platelet PLA2. […] Free fatty acid ([1-^14 C] oleic acid labeled phospholipids are visualized with exposure to iodine vapors. Radioactive areas that co-chromatographed with authentic oleic acid and phospholipid standards are cut out and placed in a scintillation vial. One ml CH3 OH and 10 ml Hydrofluor are added to each cut strip and radioactivity is determined by liquid scintillation counting.
The percent hydrolysis is calculated by the following equation: [formula]

Assay [1] concerns lipoxygenase and/or cyclooxygenase pathways of arachidonic acid. The assay can be described thus: arachidonic acid (AA)-induced murine ear edema test. The following applies: 1 mg/ear, drug 30 minutes prior to AA (2 mg/ear), ear thickness measured after 1 hour. Type of assay: in vivo, Swiss Webster female mice. The source says: (§1) The ability of the compounds of the invention to inhibit the lipoxygenase and/or cyclooxygenase pathways of arachidonic acid is examined in the in vivo arachidonic acid (AA)-/12-O-tetradecanoylphorbol acetate (TPA)-induced murine ear edema test.
(§2) According to this test, Swiss Webster female mice (Buckshire), approximately 8 weeks old, are placed into plastic boxes in groups of six. Eight groups of mice receive AA topically on the right ear, and another 8 groups receive TPA topically on the right ear. AA and TPA are dissolved in acetone at concentrations of 100 mg/ml ad 100 μg/ml respectively. The phlogistics are applied to the right ear by the means of an automatic pipet. Volumes of 10 μl are applied to the inner and outer surfaces of the ear. Each mouse receives either 2 mg/ear AA or […] TPA. The left ear (control) receives acetone delivered in the same manner. […]
(§3) Measurements are taken with Oditest calipers, 0-10 mm with 0.01 graduations. The right and left ears are measured after 1 hour AA-induced inflammation and 4 hours after TPA-induced inflammation.
(§4) The difference between right and left ear thickness is calculated and the significance is determined by a one way analysis of variance with Dunnett's comparisons to control (P=0.05). Drug effects are expressed as a percent change from control values: [formula]

Assay [2] shares this test system. As to the kind of experiment: 12-O-tetradecanoylphorbol acetate (TPA)-induced murine ear edema test. The note with it: 1 mg/ear, drug 30 minutes after TPA (4 μg/ear), ear thickness measured after 4 hours. Type of assay: in vivo, Swiss Webster female mice.
Description: as §1, §2, §3, §4

In general, inhibition refers to the relative decrease from the control value, in per cent. High values mean a response far below the control, low ones a response near the control.

Compound `CCCCCCCCCCCCNC(=O)NCCOP1(=O)OCCO1` [Example 1, N-[2-(1,3,2-Dioxaphospholan-2-yloxy)ethyl]-N'-dodecylurea P-oxide] came in with an inhibition at 100 µM against human platelet PLA2 of 32%.

For `CCCCCCCCCCCCNC(=O)OCCOP1(=O)OCCO1` [Example 2, Dodecylcarbamic acid 2-(1,3,2-dioxaphospholan-2-yloxy)ethyl ester P-oxide], in assay [1], the “% Change from Control, TOPICAL, AA” value is -16%. Besides, in assay [2], the “% Change from Control, TOPICAL, TPA” value is reported as -38%. The compound further had an inhibition at 100 µM against human platelet PLA2 of 92%.

Take `CCCCCCCCCCCCCCCCS(=O)(=O)NCCOP1(=O)OCCO1` [Example 3, N-[2-(1,3,2-dioxaphospholan-2-yloxy)ethyl]-1-hexadecanesulfonamide P-oxide]: 100 µM produced 28% inhibition at human platelet PLA2.
